The source of these data is publication PMC12113540, “Isolation and Characterization of L-Asparaginase-Producing Bacteria from the Arabian–Persian Gulf Region: First Report on Bacillus xiamenensis ASP-J1-4 as a Producer and Its Potential Application” (Marine Drugs, 2025).

The test system of this test is T1, ASP-J1-4 L-ASNase.
T1 construct: gene ansZ; native enzyme from culture broth, acetone precipitation, dialysis, DEAE-Sepharose; 36 kDa (37 kDa in abstract) by SDS-PAGE; no L-glutaminase activity
As to the kind of experiment: ammonia release, Nessler's reagent, A436; Lineweaver-Burk plot. To be noted: 0.02-2.42 mM L-ASN; regular assay conditions (pH and temperature not restated for kinetics). The class given is biochemical, Bacillus xiamenensis.

Usually Km stands for the concentration of substrate that gives half-maximal velocity. Take `NC(=O)C[C@H](N)C(=O)O` [L-ASN]: the Michaelis constant (Km) was determined as 150 µM.
